Source: patent US11571378B2, “Skin care composition and method of using the same” (The Procter & Gamble Company, priority 2021, dated 2023)
No end group written: not given here.

What was measured:
PPARA [SEQ ID NO: 2] = assay: Gene Modulation Assay, PPARA expression (qPCR); assay type: cell-based
Experimental: (§1) This method provides a way to measure the ability of a compound or material to modulate the expression of a target gene such as PPARA [SEQ ID NO: 2] or MSMO1 [SEQ ID NO: 3]. • Cells: tert keratinocytes (tKC)
(§2) BJ Fibroblasts • Plating: Cells are plated the day before treatment. • For tert keratinocytes: 100,000 cells/well in 2 ml volume of medium/well for 12-well plates (e.g., Collagen I coated plates, Corning cat #356500), or 50,000 cells/well in 1 ml volume of medium/well for 24-well plates. • For BJ fibroblasts: 88,000 cells/well in 2 ml volume of medium/well for 12-well plates (e.g., Corning cat #3512), or 44,000 cells/well in 1 ml volume of medium/well for 24-well plates. • Medium: For tert keratinocytes: EpiLife (e.g., Thermo Fisher Scientific cat #MEPI500CA+HKGS (e.g., Thermo Fisher Scientific cat #S-001-5). • For BJ Fibroblasts: EMEM (e.g., ATCC cat #30-2003)+10% FBS (e.g., HyClone cat #SH30071.02).
(§3) Treatments are made in media and aliquoted to dose plates. When it is time to treat cells, all plates of cells are removed from the incubator at the same time. Working with one plate at a time, media is removed and treatment is added, as follows: • Media is decanted from plate of cells. • Inverted plate is blotted briefly on paper towels. • Lid is put back onto plate and plate is moved into biosafety cabinet. • Treatments are transferred from dose plate to plate of cells, one column at a time, using a multichannel pipette. Once all plates have been treated, they are moved into incubator at 37° C., with 5% CO2 and 90% humidity. About 15-30 min before the end of the treatment period, cells from representative wells of each treatment are observed via microscope, then plates are returned to the incubator. When treatment time is complete, all plates are removed from incubator. Media is decanted from each plate, and plates are blotted on paper towels. 350 ul Qiagen Buffer RLT is added to each well to lyse cells, and lysates are transferred to 2 ml Eppendorf tubes and stored at −20° C. until ready for genomics.
(§4) Cell lysates are thawed at 4° C. and then isolated using the Biomek FxP and the RNAdvance Tissue Isolation kit (Beckman Coulter, p/n A32646). The resulting RNA is quantified using the Nandrop 8000 (Nanodrop, ND-8000). cDNA is generated using 500 ng of Total RNA and Applied Biosystems High Capacity cDNA with Reverse Transcription kit (Applied Biosystems p/n 4368814). cDNA, assays, and dilutions of PrimeTime GeneExpression MasterMix (IDT, p/n ? ) are plated onto a Wafergen MyDesign SmartChip (TakaraBio, p/n 640036) using the Wafergen Nanodispenser. The chip is then loaded into the SmartChip cycler and qPCR performed using the following PCR conditions:
(§5) Hold stage: 50° C. for 2 minutes (warm up), then 95° C. for 10 minutes.
(§6) PCR stage (40 cycles): 95° C. for 15 seconds, then 60° C. for 1 minute. Export data in .txt file format for analysis.
(§7) Test compositions and control compositions were prepared as described above in the Gene Modulation Assay and tested accordingly. The pal-KT used in this example is PALESTRINA brand pal-KT from Sederma (France), and the ac-PPYL is SYNIORAGE brand tetrapeptide from BASF Care Creations (New Jersey). P+A refers to the combination of pal-KT (P), and ac-PPYL (A) [SEQ ID NO: 1].
(§8) Synergy Factor is calculated as: […]
(§9) A synergy factor greater than 1.00 with p-value ≤0.05 indicates a statistically significant synergistic effect. Preferred synergy factors are 1.3 or greater.
(§10) In this test, the amino acids from pal-KT were rearranged to form a new dipeptide, pal-TK. Test compositions and control compositions were prepared as described above in the Gene Modulation Assay and tested accordingly. Fold change factor is calculated as.
(§11) [formula] A fold change factor of greater than 1 is desired, and a fold change factor of 1.3 or greater is preferred.

MSMO1 [SEQ ID NO: 3] = assay: Gene Modulation Assay, MSMO1 expression (qPCR); assay type: cell-based
Experimental: as §1, §2, §3, §4, §5, §6, §7, §8, §9, §10, §11

[1] = pal-KT + ac-PPYL relative to pal-TK + ac-PPYL, all peptides at 1 ppm

Substance	Fold change vs. control, Ac-PPYL (PPARA [SEQ ID NO: 2]; Ac-PPYL 0.0135 ppm alone)	Fold change vs. control, Ac-PPYL (PPARA [SEQ ID NO: 2]; Ac-PPYL 1 ppm alone)	Fold change vs. control, Ac-PPYL (PPARA [SEQ ID NO: 2]; Ac-PPYL 13.5 ppm alone)	Fold change vs. control, Ac-PPYL (PPARA [SEQ ID NO: 2]; Ac-PPYL 40.5 ppm alone)	Fold change vs. control, Ac-PPYL (MSMO1 [SEQ ID NO: 3]; Ac-PPYL 0.0135 ppm alone)	Fold change vs. control, Ac-PPYL (MSMO1 [SEQ ID NO: 3]; Ac-PPYL 1 ppm alone)	Fold change vs. control, Ac-PPYL (MSMO1 [SEQ ID NO: 3]; Ac-PPYL 13.5 ppm alone)	Fold change vs. control, Ac-PPYL (MSMO1 [SEQ ID NO: 3]; Ac-PPYL 40.5 ppm alone)	Fold change vs. control, Pal-KT (PPARA [SEQ ID NO: 2]; Pal-KT 1 ppm alone)	Fold change vs. control, Pal-KT (PPARA [SEQ ID NO: 2]; Pal-KT 7.5 ppm alone)	Fold change vs. control, Pal-KT (PPARA [SEQ ID NO: 2]; Pal-KT 15 ppm alone)	Fold change factor (PPARA [SEQ ID NO: 2]; [1])	Fold change vs. control, Pal-KT (MSMO1 [SEQ ID NO: 3]; Pal-KT 1 ppm alone)	Fold change vs. control, Pal-KT (MSMO1 [SEQ ID NO: 3]; Pal-KT 7.5 ppm alone)	Fold change vs. control, Pal-KT (MSMO1 [SEQ ID NO: 3]; Pal-KT 15 ppm alone)	Fold change factor (MSMO1 [SEQ ID NO: 3]; [1])
acetyl tetrapeptide-11 (Ac-PPYL) [acetylated tetrapeptide ac-PPYL, available as SYNIORAGE from BASF Care Creations]	0.70	0.69	0.67	0.71	0.377	0.496	0.510	0.560	–	–	–	–	–	–	–	–
palmitoyl dipeptide-7 [Pal-KT]	–	–	–	–	–	–	–	–	1.26	1.43	1.59	greater than 1.3	4.32	4.69	5.63	greater than 1.3
